Source: ChEMBL document CHEMBL1157256, “Junceellolides J-L, 11,20-epoxybriaranes from the gorgonian coral Junceella fragilis” (2006)

Experiments:
Neutrophil = test: Inhibition of FMLP/cytochalasin B-stimulated elastase release in human neutrophils at 10 ug/mL relative to control; type: functional
[1] = Antioxidant activity in human neutrophils assessed as inhibition of superoxide generation at 10 ug/mL by colorimetric method relative to control; type: functional; settings: Neutrophil

For `CC(=O)O[C@H]1CC/C(C)=C\[C@@H]2OC(=O)[C@H](C)[C@@]2(O)[C@@H](OC(C)=O)[C@H]2[C@@]3(CC[C@H](OC(C)=O)[C@]12C)CO3`, the inhibition at 10 µg/mL (Neutrophil) was 15.4% and the inhibition at 10 µg/mL [1] was 22.6%.
Work on `CC(=O)O[C@H]1CC[C@]2(CO2)[C@@H]2[C@H](OC(C)=O)[C@]3(O)[C@@H](C)C(=O)O[C@H]3[C@@H](O)[C@](C)(O)CC[C@H](OC(C)=O)[C@@]12C` [JUNCEELLOLIDE L] yielded an inhibition at 10 µg/mL (Neutrophil) of 5.52% and an inhibition at 10 µg/mL [1] of 5.55%.
With `CC(=O)O[C@H]1CC[C@@]2(CO2)[C@@H]2[C@H](OC(C)=O)[C@]3(O)[C@@H](C)C(=O)O[C@H]3[C@@H]3O[C@]3(C)CC[C@H](OC(C)=O)[C@@]12C` [JUNCEELLOLIDE J] the inhibition at 10 µg/mL (Neutrophil) was 5.17% and the inhibition at 10 µg/mL [1] was 7.66%.
In the case of `CC(=O)O[C@H]1CC/C(C)=C\[C@@H]2OC(=O)[C@H](C)[C@@]2(O)[C@@H](OC(C)=O)[C@H]2[C@]3(CC[C@H](OC(C)=O)[C@]12C)CO3` [JUNCEELLOLIDE K], the inhibition at 10 µg/mL (Neutrophil) was 15% and the inhibition at 10 µg/mL [1] was 13.9%.
